Assay results as given in US20120077863A1, “GUANIDINO-SUBSTITUTED BI-AND POLYPHENYLS AS SMALL MOLECULE CARRIERS” (UCL Business PLC, priority 2009, published 2012).

Molecular target: GAPD siRNA
Test: Isothermal calorimetry (ITC) binding of SMOC to siRNA
Conditions: 6G-SMOC 250 μM in syringe, siRNA 3.5 μM in cell, FIG. 2
Description: An isothermal calorimetry experiment (ITC) was carried out to analyse the strength of the binding between the 6G-SMOG compound shown below and siRNA targeted to the […].
6G-SMOC at a concentration of 250 μM was loaded into the syringe of a Microcal VP-ITC calorimeter (450 μl), and the cell (1.8 ml) filled with GAPD siRNA (Dharmacon RNAi Technologies) at a concentration of 3.5 μM. A total of 37 injections of 8 μl each were made at 4 minute intervals to ensure total saturation of the siRNA. The binding curve was plotted using Origin 6.0 (Microcal) and the binding constants calculated.

With N=C(N)NCCOc1cccc(-c2ccc(-c3cccc(OCCNC(=N)N)c3OCCNC(=N)N)c(OCCNC(=N)N)c2OCCNC(=N)N)c1OCCNC(=N)N [6G-SMOC] the Kd was about 80 µM.
